Assay [1] deals with cyclin D1. Description: Cyclin D1 percentage degradation in Calu-1 cells (immunoblotting). The assay is classed as cell-based. The settings on record: 16 hours. In a few lines: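 Cells were rinsed once in cold PBS and lysed in cold RIPA buffer containing protease and phosphatase inhibitors, with gentle agitation at 4° C. for 30 min. Lysates were spun at 13,000 rpm for 10 min at 4° C., protein was measured by BCA, and samples were boiled in Laemmli buffer at 99° C. for 5 min before SDS-PAGE immunoblotting.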
On the technique in general: A western blot detects proteins with antibodies after separation by electrophoresis.

Assay [2] has as its target T1, CDK4 (Homo sapiens, UniProt P11802).
T1 construct: endogenous in cells; host or cells: Calu-1
The experiment in a line: CDK4 percentage degradation in Calu-1 cells (immunoblotting). The settings on record: for inhibition at 0.2 µM: read-out: CDK4 Degradation (200 nM); for inhibition at 10 µM: read-out: CDK4 Degradation (10 μM). The assay is classed as cell-based. The method in brief: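 Cultured cells were rinsed once in cold PBS and lysed in cold RIPA buffer containing protease and phosphatase inhibitors, with gentle agitation at 4° C. for 30 min. Lysates were centrifuged at 13,000 rpm for 10 min at 4° C., and protein was quantified by BCA. Samples were then separated by SDS-PAGE, detected with ECL, and the CDK4 bands quantified in Image Lab.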

SMILES strings stand for the structures. Where two headings read alike, the source gives them in different places.

T1 sequence (P11802 2-303 limits assumed): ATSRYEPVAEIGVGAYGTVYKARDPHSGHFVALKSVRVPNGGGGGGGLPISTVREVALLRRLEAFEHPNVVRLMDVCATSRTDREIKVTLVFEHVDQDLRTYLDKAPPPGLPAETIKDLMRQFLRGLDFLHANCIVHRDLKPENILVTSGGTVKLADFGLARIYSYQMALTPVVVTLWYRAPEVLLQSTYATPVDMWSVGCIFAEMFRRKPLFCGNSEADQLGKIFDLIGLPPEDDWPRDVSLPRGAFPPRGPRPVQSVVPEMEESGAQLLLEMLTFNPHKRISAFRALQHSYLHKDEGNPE
T1 sequence (P24385 whole entry partner): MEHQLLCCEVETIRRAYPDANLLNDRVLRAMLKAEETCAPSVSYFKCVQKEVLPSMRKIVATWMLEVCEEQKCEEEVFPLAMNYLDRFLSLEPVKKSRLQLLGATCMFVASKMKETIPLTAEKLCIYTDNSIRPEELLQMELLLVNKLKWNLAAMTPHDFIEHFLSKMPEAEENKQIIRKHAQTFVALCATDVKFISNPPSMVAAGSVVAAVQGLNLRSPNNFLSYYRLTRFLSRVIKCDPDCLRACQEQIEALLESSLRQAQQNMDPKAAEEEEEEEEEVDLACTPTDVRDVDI
T1 sequence (Q16531 2-1140 limits assumed, further chain): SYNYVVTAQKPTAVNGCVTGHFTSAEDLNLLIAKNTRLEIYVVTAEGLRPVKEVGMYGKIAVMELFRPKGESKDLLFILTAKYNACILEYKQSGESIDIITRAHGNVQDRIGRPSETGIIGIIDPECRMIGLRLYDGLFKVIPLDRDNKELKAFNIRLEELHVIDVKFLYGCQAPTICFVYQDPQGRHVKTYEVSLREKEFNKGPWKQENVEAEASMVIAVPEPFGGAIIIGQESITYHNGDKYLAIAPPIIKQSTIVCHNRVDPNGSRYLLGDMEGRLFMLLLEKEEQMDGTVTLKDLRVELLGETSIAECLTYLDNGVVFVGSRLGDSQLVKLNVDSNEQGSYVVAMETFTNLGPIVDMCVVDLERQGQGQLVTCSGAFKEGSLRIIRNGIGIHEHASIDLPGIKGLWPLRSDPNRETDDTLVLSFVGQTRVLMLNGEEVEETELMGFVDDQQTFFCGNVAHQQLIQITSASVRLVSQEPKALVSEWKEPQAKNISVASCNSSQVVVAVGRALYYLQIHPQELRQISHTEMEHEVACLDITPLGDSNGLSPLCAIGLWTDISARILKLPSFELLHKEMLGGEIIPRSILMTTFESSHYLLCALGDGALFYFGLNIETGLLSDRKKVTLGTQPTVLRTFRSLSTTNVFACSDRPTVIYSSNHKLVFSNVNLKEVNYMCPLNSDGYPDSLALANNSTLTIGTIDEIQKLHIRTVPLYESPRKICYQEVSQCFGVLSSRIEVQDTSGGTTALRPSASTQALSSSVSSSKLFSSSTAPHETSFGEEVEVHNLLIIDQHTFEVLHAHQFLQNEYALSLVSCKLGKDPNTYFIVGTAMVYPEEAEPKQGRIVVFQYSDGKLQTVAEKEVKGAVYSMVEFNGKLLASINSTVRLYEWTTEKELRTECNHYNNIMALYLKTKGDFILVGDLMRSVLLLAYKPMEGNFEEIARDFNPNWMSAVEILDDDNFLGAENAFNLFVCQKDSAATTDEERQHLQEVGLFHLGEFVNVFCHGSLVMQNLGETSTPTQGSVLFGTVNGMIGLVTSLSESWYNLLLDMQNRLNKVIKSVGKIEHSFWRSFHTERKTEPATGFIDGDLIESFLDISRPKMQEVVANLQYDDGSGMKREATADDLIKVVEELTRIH

Turning to `CC(=O)c1c(C)c2cnc(Nc3ccc(N4CCN(CC(=O)NCCOCCNc5ccc(C)c(C(=O)Nc6nc(C)c(C)s6)c5)CC4)cn3)nc2n(C2CCCC2)c1=O` [CPD-096, 5-((2-(2-(2-(4-(6-((6-Acetyl-8-cyclopentyl-5-methyl-7-oxo-7,8-dihydropyrido[2,3-d]pyrimidin-2-yl)amino)pyridin-3-yl)piperazin-1-yl)acetamido)ethoxy)ethyl)amino)-N-(4,5-dimethylthiazol-2-yl)-2-methylbenzamide], in assay [1], the “CyclinD1 Degradation (200 nM)” value is given as “D (protein percentage degradation <30%)”. In addition, the inhibition at 0.2 µM in assay [2] (Calu-1 cells, 200 nM, 16 hours) is < 30%.

Turning to `CC(=O)c1c(C)c2cnc(Nc3ccc(N4CCN(C(=O)CCOCCOCCOCCOCCNc5cccc(C(=O)Nc6nc(C)c(C)s6)c5C)CC4)cn3)nc2n(C2CCCC2)c1=O` [CPD-123, 3-((15-(4-(6-((6-Acetyl-8-cyclopentyl-5-methyl-7-oxo-7,8-dihydropyrido[2,3-d]pyrimidin-2-yl)amino)pyridin-3-yl)piperazin-1-yl)-15-oxo-3,6,9,12-tetraoxapentadecyl)amino)-N-(4,5-dimethylthiazol-2-yl)-2-methylbenzamide], in assay [1], the “CyclinD1 Degradation (200 nM)” value is reported as “A (protein percentage degradation >=80%)”. The inhibition at 0.2 µM in assay [2] (Calu-1, 16 h) was in the range of 50 to 80%.

Take `CNc1ccc(C(=O)Nc2ccc(N(C)C)nn2)c(NCCCCCNC(=O)CN2CCN(c3ccc(Nc4ncc5c(C)c(C(C)=O)c(=O)n(C6CCCC6)c5n4)nc3)CC2)c1` [CPD-377, 2-((5-(2-(4-(6-((6-Acetyl-8-cyclopentyl-5-methyl-7-oxo-7,8-dihydropyrido[2,3-d]pyrimidin-2-yl)amino)pyridin-3-yl)piperazin-1-yl)acetamido)pentyl)amino)-N-(6-(dimethylamino)pyridazin-3-yl)-4-(methylamino)benzamide]: in assay [1], the “CyclinD1 Degradation (200 nM)” value was “A (protein percentage degradation >=80%)”. In assay [2] (Calu-1 cells, 200 nM, 16 hours), the inhibition at 0.2 µM was in the range of 50 to 80%.

On to `CC(=O)c1c(C)c2cnc(Nc3ccc(N4CCN(CC(=O)NCCCCCCCNc5ccccc5C(=O)Nc5nc(C)c(C)s5)CC4)cn3)nc2n(C2CCCC2)c1=O` [CPD-364, 2-((7-(2-(4-(6-((6-Acetyl-8-cyclopentyl-5-methyl-7-oxo-7,8-dihydropyrido[2,3-d]pyrimidin-2-yl)amino)pyridin-3-yl)piperazin-1-yl)acetamido)heptyl)amino)-N-(4,5-dimethylthiazol-2-yl)benzamide], for which, in assay [1], the “CyclinD1 Degradation (200 nM)” value is recorded as “A (protein percentage degradation >=80%)”. Further, in assay [2] (Calu-1 cells, 200 nM, 16 hours), the inhibition at 0.2 µM fell in the range of 50 to 80%.

As for `CC(=O)c1c(C)c2cnc(Nc3ccc(N4CCN(CC(=O)NCCOCCOCCC(=O)Nc5ccccc5C(=O)Nc5ccc(C)nn5)CC4)cn3)nc2n(C2CCCC2)c1=O` [CPD-056, 2-(3-(2-(2-(2-(4-(6-((6-Acetyl-8-cyclopentyl-5-methyl-7-oxo-7,8-dihydropyrido[2,3-d]pyrimidin-2-yl)amino)pyridin-3-yl)piperazin-1-yl)acetamido)ethoxy)ethoxy)propanamido)-N-(6-methylpyridazin-3-yl)benzamide], the “CyclinD1 Degradation (200 nM)” value in assay [1] is “A (protein percentage degradation >=80%)”. In assay [2] (Calu-1 cells, 200 nM, 16 hours), the inhibition at 0.2 µM was in the range of 50 to 80%.

Turning to `Cc1nc(NC(=O)c2ccccc2NC(=O)CCOCCNC(=O)CN2CCN(c3ccc(Nc4ncc(F)c(-c5cc(F)c6nc(C)n(C(C)C)c6c5)n4)nc3)CC2)sc1C` [CPD-308, N-(4,5-Dimethylthiazol-2-yl)-2-(3-(2-(2-(4-(6-((5-fluoro-4-(4-fluoro-1-isopropyl-2-methyl-1H-benzo[d]imidazol-6-yl)pyrimidin-2-yl)amino)pyridin-3-yl)piperazin-1-yl)acetamido)ethoxy)propanamido)benzamide], the “CyclinD1 Degradation (10 μM)” value in assay [1] is “B (protein percentage degradation < 80%, and >= 50%)”. In addition, the inhibition at 10 µM in assay [2] (Calu-1 cells, 16 hours) was < 30%.

`CC(=O)c1c(C)c2cnc(Nc3ccc(N4CCN(C(=O)CCOCCOCCOCCOCCOCCC(=O)Nc5ccccc5C(=O)Nc5nc(C)c(C)s5)CC4)cn3)nc2n(C2CCCC2)c1=O` [CPD-163, 19-(4-(6-((6-Acetyl-8-cyclopentyl-5-methyl-7-oxo-7,8-dihydropyrido[2,3-d]pyrimidin-2-yl)amino)pyridin-3-yl)piperazin-1-yl)-N-(2-((4,5-dimethylthiazol-2-yl)carbamoyl)phenyl)-19-oxo-4,7,10,13,16-pentaoxanonadecanamide]: the “CyclinD1 Degradation (200 nM)” value in assay [1] is listed as “A (protein percentage degradation >=80%)”. The inhibition at 0.2 µM in assay [2] (Calu-1, 16 h) fell in the range of 50 to 80%.

Turning to `CC(=O)c1c(C)c2cnc(Nc3ccc(N4CCN(CC(=O)NCCOCCOCCC(=O)Nc5ccccc5C(=O)Nc5nnc(C)s5)CC4)cn3)nc2n(C2CCCC2)c1=O` [CPD-367, 2-(3-(2-(2-(2-(4-(6-((6-Acetyl-8-cyclopentyl-5-methyl-7-oxo-7,8-dihydropyrido[2,3-d]pyrimidin-2-yl)amino)pyridin-3-yl)piperazin-1-yl)acetamido)ethoxy)ethoxy)propanamido)-N-(5-methyl-1,3,4-thiadiazol-2-yl)benzamide], in assay [1], the “CyclinD1 Degradation (200 nM)” value was “D (protein percentage degradation <30%)”. For the same compound, the inhibition at 0.2 µM in assay [2] (Calu-1 cells, 200 nM, 16 hours) was < 30%.

On to `Cc1nc(NC(=O)c2ccccc2NC(=O)CCCCCCCCNC(=O)CN2CCN(c3ccc(Nc4ncc5cc6n(c5n4)C4(CCCCC4)CNC6=O)nc3)CC2)sc1C` [CPD-321, N-(4,5-Dimethylthiazol-2-yl)-2-(9-(2-(4-(6-((6′-oxo-7′,8′-dihydro-6′H-spiro[cyclohexane-1,9′-pyrazino[1′,2′:1,5]pyrrolo[2,3-d]pyrimidin]-2′-yl)amino)pyridin-3-yl)piperazin-1-yl)acetamido)nonanamido)benzamide], for which, in assay [1], the “CyclinD1 Degradation (10 μM)” value is “A (protein percentage degradation >= 80%)”. In addition, the inhibition at 10 µM in assay [2] (Calu-1 cells, 16 hours) was 50 to 80%.

Consider `CC(=O)c1c(C)c2cnc(Nc3ccc(N4CCN(CC(=O)NCCCNc5ccc(C)c(C(=O)Nc6nc(C)c(C)s6)c5)CC4)cn3)nc2n(C2CCCC2)c1=O` [CPD-087, 5-((3-(2-(4-(6-((6-Acetyl-8-cyclopentyl-5-methyl-7-oxo-7,8-dihydropyrido[2,3-d]pyrimidin-2-yl)amino)pyridin-3-yl)piperazin-1-yl)acetamido)propyl)amino)-N-(4,5-dimethylthiazol-2-yl)-2-methylbenzamide], for which the “CyclinD1 Degradation (200 nM)” value in assay [1] is reported as “D (protein percentage degradation <30%)”. In addition, the inhibition at 0.2 µM in assay [2] (Calu-1 cells, 200 nM, 16 hours) was < 30%.

With `Cc1nc(NC(=O)c2ccccc2NC(=O)CCOCCNC(=O)CN2CCN(Cc3ccc(Nc4ncc(F)c(-c5cc(F)c6nc(C)n(C(C)C)c6c5)n4)nc3)CC2)sc1C` [CPD-280, N-(4,5-Dimethylthiazol-2-yl)-2-(3-(2-(2-(4-((6-((5-fluoro-4-(4-fluoro-1-isopropyl-2-methyl-1H-benzo[d]imidazol-6-yl)pyrimidin-2-yl)amino)pyridin-3-yl)methyl)piperazin-1-yl)acetamido)ethoxy)propanamido)benzamide], the “CyclinD1 Degradation (10 μM)” value in assay [1] is reported as “D (protein percentage degradation < 30%)”. In addition, the inhibition at 10 µM in assay [2] (Calu-1 cells, 16 hours) is < 30%.

In the case of `CC(=O)c1c(C)c2cnc(Nc3ccc(N4CCN(C(=O)CCCCCCNc5cccc(C(=O)Nc6nc(C)c(C)s6)c5C)CC4)cn3)nc2n(C2CCCC2)c1=O` [CPD-138, 3-((7-(4-(6-((6-Acetyl-8-cyclopentyl-5-methyl-7-oxo-7,8-dihydropyrido[2,3-d]pyrimidin-2-yl)amino)pyridin-3-yl)piperazin-1-yl)-7-oxoheptyl)amino)-N-(4,5-dimethylthiazol-2-yl)-2-methylbenzamide], in assay [1], the “CyclinD1 Degradation (200 nM)” value is given as “D (protein percentage degradation <30%)”. In addition, the inhibition at 0.2 µM in assay [2] (Calu-1 cells, 200 nM, 16 hours) was < 30%.

As for `CC(=O)c1c(C)c2cnc(Nc3ccc(N4CCN(CCCCCCCCCCNc5cccc(C(=O)Nc6nc(C)c(C)s6)c5C)CC4)cn3)nc2n(C2CCCC2)c1=O` [CPD-078, 3-((10-(4-(6-((6-Acetyl-8-cyclopentyl-5-methyl-7-oxo-7,8-dihydropyrido[2,3-d]pyrimidin-2-yl)amino)pyridin-3-yl)piperazin-1-yl)decyl)amino)-N-(4,5-dimethylthiazol-2-yl)-2-methylbenzamide], in assay [1], the “CyclinD1 Degradation (200 nM)” value is on record as “D (protein percentage degradation <30%)”. Further, the inhibition at 0.2 µM in assay [2] (Calu-1, 16 h) is < 30%.

Take `CC(=O)c1c(C)c2cnc(Nc3ccc(N4CCN(CC(=O)NCCOCCOCCOCCOCCOCCNc5ccc(C(=O)Nc6ncc(-c7ccccc7)s6)c(C)c5)CC4)cn3)nc2n(C2CCCC2)c1=O` [CPD-001, 4-((1-(4-(6-((6-Acetyl-8-cyclopentyl-5-methyl-7-oxo-7,8-dihydropyrido[2,3-d]pyrimidin-2-yl)amino)pyridin-3-yl)piperazin-1-yl)-2-oxo-6,9,12,15,18-pentaoxa-3-azaicosan-20-yl)amino)-2-methyl-N-(5-phenylthiazol-2-yl)benzamide]: the “CyclinD1 Degradation (200 nM)” value in assay [1] is “D (protein percentage degradation <30%)”. The inhibition at 0.2 µM in assay [2] (Calu-1 cells, 200 nM, 16 hours) was < 30%.

Regarding `Cc1nc(NC(=O)c2ccccc2NC(=O)CCCCCNC(=O)CN2CCN(c3ccc(Nc4ncc5cc(C(=O)N(C)C)n(C6CCCC6)c5n4)nc3)CC2)sc1C` [CPD-290, 7-Cyclopentyl-2-((5-(4-(2-((6-((2-((4,5-dimethylthiazol-2-yl)carbamoyl)phenyl)amino)-6-oxohexyl)amino)-2-oxoethyl)piperazin-1-yl)pyridin-2-yl)amino)-N,N-dimethyl-7H-pyrrolo[2,3-d]pyrimidine-6-carboxamide], the “CyclinD1 Degradation (10 μM)” value in assay [1] was “B (protein percentage degradation < 80%, and >= 50%)”. Also, the inhibition at 10 µM in assay [2] (Calu-1 cells, 16 hours) was 30 to 50%.

The values above are taken from US20250235543A1, “MODIFIED PROTEINS AND PROTEIN DEGRADERS” (Cullgen (Shanghai), Inc., priority 2021, published 2025).
